Literature values, collected in patent US20210319872A1, “DRUG AND DEVICE COMBINATION PRODUCTS WITH IMPROVED SAFETY AND EFFICACY PROFILES” (priority 2016, published 2021).
Where two headings read alike, the source gives them in different places.

Structure (SMILES): Nc1nnc(-c2cccc(Cl)c2Cl)c(N)n1 [Lamotrigine (Lamictal)]
- Abdominal pain (in vivo): Gastrointestinal: Abdominal pain (immediate-release, 5% to 10%),
- Anemia (in vivo): Hematologic: Anemia (immediate release, less than 0.1%),
- Angioedema (in vivo): Other: Angioedema (less than 0.1%), Neuroleptic malignant
- Ataxia (in vivo): release, 6%), Ataxia (immediate-release, 2% to 11%), Coordination
- Coordination problem (in vivo): problem (immediate-release, 6% to 7%; extended-release, 3%),
- Depression (in vivo): 3%), Depression (immediate-release, 4%; extended-release, 3%)
- Diarrhea (in vivo): Diarrhea (immediate-release, 6% to 11%; extended-release, 5%),
- Dizziness (in vivo): Dizziness (immediate-release, 7% to 54%; extended release, 14%),
- Dysmenorrhea (in vivo): Reproductive: Dysmenorrhea (immediate-release, 5% to 7%)
- Headache (in vivo): Headache (immediate-release, 29%), Insomnia (immediate-release,
- Indigestion (in vivo): Indigestion (immediate-release, 2% to 7%), Nausea (immediate-
- Insomnia (in vivo): 5% to 10%), Somnolence (immediate-release, 9% to 17%;
- Nausea (in vivo): release, 7% to 25%; extended-release, 7%), Vomiting (immediate-
- Pain (in vivo): Other: Pain (immediate-release, 5%)
- Rash (in vivo): Dermatologic: Rash (7% to 14%)
- Rash, Serious (in vivo): Serious (0.08% to 0.8%), Stevens-Johnson syndrome (0.08% to
- Rhinitis (in vivo): Respiratory: Rhinitis (immediate-release, 7% to 14%)
- Vomiting (in vivo): release, 5% to 20%; extended-release, 6%))

Structure (SMILES): COc1ccc(C(CN(C)C)C2(O)CCCCC2)cc1 (stereo not shown) [Venlafaxine (Effexor)]
- Abnormal ejaculation (in vivo): Reproductive: Abnormal ejaculation (2.2% to 19%), Erectile
- Asthenia (in vivo): Neurologic: Asthenia (8% to 19%), Dizziness (11% to 23.9%),
- Dizziness (in vivo): Neurologic: Asthenia (8% to 19%), Dizziness (11% to 23.9%),
- Dream disorder (in vivo): Dream disorder (3% to 7%), Headache (25% to 38%), Insomnia
- Erectile dysfunction (in vivo): dysfunction (2.1% to 6%), Orgasm disorder (2% to 5%)
- Feeling nervous (in vivo): Psychiatric: Feeling nervous (4% to 21.3%)
- Headache (in vivo): Dream disorder (3% to 7%), Headache (25% to 38%), Insomnia
- Hypertension (in vivo): Cardiovascular: Hypertension (3% to 13%)
- Nausea (in vivo): 22%), Nausea (21% to 58%), Xerostomia (12% to 22%)
- Orgasm disorder (in vivo): dysfunction (2.1% to 6%), Orgasm disorder (2% to 5%)
- Seizure (in vivo): Neurologic: Seizure (0.3%)
- Sweating symptom (in vivo): Dermatologic: Sweating symptom (6.7% to 25%)
- Weight loss (in vivo): Endocrine metabolic: Weight loss (3% to 47%)
- Xerostomia (in vivo): 22%), Nausea (21% to 58%), Xerostomia (12% to 22%)

Structure (SMILES): CCCN[C@H]1CCc2nc(N)sc2C1 [Pramipexole (Mirapex)]
- Amnesia (in vivo): Neurologic: Amnesia (4% to 6%), Asthenia (Immediate-release,
- Asthenia (in vivo): 10% to 14%; extended-release, 3%), Confusion (4% to 10%),
- Confusion (in vivo): 10% to 14%; extended-release, 3%), Confusion (4% to 10%),
- Dizziness (in vivo): Dizziness (Immediate-release, 3% to 26%; extended-release, 2% to
- Dream disorder (in vivo): ≤ 12%), Dream disorder (Up to 11%), Dyskinesia (Immediate-
- Dyskinesia (in vivo): release, 18% to 47%; extended-release, 17%), Extrapyramidal
- Extrapyramidal movements (in vivo): movements (28%), Headache (Immediate-release, 4% to 16%;
- Hallucinations (in vivo): Psychiatric: Hallucinations (5% to 17%)
- Sleep attack (in vivo): Neurologic: Sleep attack (2% to 6%), Somnolence (Immediate-
- Somnolence (in vivo): release, 6% to 33%; extended-release, 15% to 36%)

Structure (SMILES): COc1ccc(-n2nc(C(N)=O)c3c2C(=O)N(c2ccc(N4CCCCC4=O)cc2)CC3)cc1 [Apixaban (Eliquis)]
- Bleeding gums (in vivo): Gastrointestinal: Bleeding gums (Less than 0.1% to 1.4%)
- Bleeding, Major (in vivo): prophylaxis, 2.88% to 4.83%), Bleeding, Major (0.1% to 2.13%),
- Conjunctival hemorrhage (in vivo): Ophthalmic: Conjunctival hemorrhage (0.1% to less than 1%),
- Contusion (in vivo): Dermatologic: Contusion (1.4% to 2.2%)
- Hematochezia (in vivo): pulmonary embolism, 0.1% to less than 1%), Hematochezia (0.1%
- Hematoma (in vivo): Hematologic: Hematoma (DVT, 1.3% to 1.5%)
- Hemorrhage (in vivo): Hemorrhage (0.1% to 1.4%), Hemorrhage, Operative (DVT
- Hemorrhage of muscle (in vivo): Musculoskeletal: Hemorrhage of muscle (Less than 0.1% to less
- Hemorrhage, Operative (in vivo): prophylaxis, 0.1% to less than 1%)
- Hypersensitivity reaction (in vivo): < 1%)
- Intracranial hemorrhage (in vivo): fibrillation, 0.33% to 0.34%/year), Non-traumatic spinal subdural
- Intraocular hemorrhage (in vivo): Intraocular hemorrhage (Less than 0.1% to less than 1%), Retinal
- Liver function tests abnormal (in vivo): 0.1% to less than 1%), Serum bilirubin raised (DVT prophylaxis,
- Menorrhagia (in vivo): Reproductive: Menorrhagia (1.4%)
- Retinal hemorrhage (in vivo): hemorrhage (0.1% to less than 1%)
- Serum bilirubin raised (in vivo): 0.1% to less than 1%)

Structure (SMILES): CN1CCN2c3ncccc3Cc3ccccc3C2C1 (stereo not shown) [Mirtazepine (Remeron)]
- ALT/SGPT level raised (in vivo): Hepatic: ALT/SGPT level raised (2%)
- Asthenia (in vivo): Neurologic: Asthenia (8%), Dizziness (7%), Somnolence (54%)
- Cirrhosis of liver (in vivo): Hepatic: Cirrhosis of liver (less than 0.1%)
- Constipation (in vivo): Gastrointestinal: Constipation (13%), Xerostomia (25%)
- Disturbance in thinking (in vivo): Psychiatric: Disturbance in thinking (3%)
- Dizziness (in vivo): Neurologic: Asthenia (8%), Dizziness (7%), Somnolence (54%)
- Grand mal seizure (in vivo): Neurologic: Grand mal seizure (less than 0.1%), Status epilepticus
- Increased appetite (in vivo): Endocrine metabolic: Increased appetite (17%), Serum triglycerides
- Serum triglycerides raised (in vivo): raised (increases to 500 mg/dL or greater: 6%), Weight gain (body
- Somnolence (in vivo): Neurologic: Asthenia (8%), Dizziness (7%), Somnolence (54%)
- Weight gain (in vivo): weight increase of 7% or greater: adults 7.5%; pediatrics 49%)
- Xerostomia (in vivo): Gastrointestinal: Constipation (13%), Xerostomia (25%)

Structure (SMILES): O=C1CCC(N2C(=O)c3ccccc3C2=O)C(=O)N1 (stereo not shown) [Thalomid]
- Nausea (erythema nodosum leprosum): 4.2%
- Rash (erythema nodosum leprosum): nodosum leprosum, 20.8%)
- Tremor (erythema nodosum leprosum): Tremor (erythema nodosum leprosum, 4.2%; multiple myeloma,
- Ischemic heart disease (in vivo): 11.1%
- Myocardial infarction (in vivo): Myocardial infarction (1.3%)
- Serious side effect, Cardiovascular (listed without frequency): Cardiac dysrhythmia
- Asthenia (multiple myeloma): 21.9%; multiple myeloma, 24%), Confusional state (multiple
- Atrial fibrillation, Grade 3/4 (multiple myeloma): 5%
- Confusional state (multiple myeloma): 28%
- Dizziness (multiple myeloma): 19.2%; multiple myeloma, 23%), Somnolence (erythema nodosum
- Dry skin (multiple myeloma): Dermatologic: Dry skin (multiple myeloma, 21%), Rash (erythema
- Dyspnea (multiple myeloma): Respiratory: Dyspnea (multiple myeloma, 42%), Pneumonia
- Fever (multiple myeloma): 24%
- Hypocalcemia (multiple myeloma): Endocrine metabolic: Hypocalcemia (multiple myeloma, 72%),
- Indigestion (multiple myeloma): 11%
- Leukopenia (multiple myeloma): multiple myeloma, 35%)
- Muscle weakness (multiple myeloma): Musculoskeletal: Muscle weakness (multiple myeloma, 40%)
- Peripheral edema (multiple myeloma): multiple myeloma, 34%)
- Pneumonia (multiple myeloma): (multiple myeloma, 15%)
- Somnolence (multiple myeloma): ≥ 3%
- Tremor (multiple myeloma): 26%)
- Weight loss (multiple myeloma): (multiple myeloma, 23%)

Structure (SMILES): O=c1n(CCCN2CCN(c3cccc(Cl)c3)CC2)nc2ccccn12 [Trazodone (Desyrel)]
- Backache (in vivo): Musculoskeletal: Backache (5%)
- Confusion (in vivo): Neurologic: Confusion (up to 5.7%), Dizziness (25%), Headache
- Constipation (in vivo): Gastrointestinal: Constipation (7% to 8%), Diarrhea (up to 9%),
- Diarrhea (in vivo): Gastrointestinal: Constipation (7% to 8%), Diarrhea (up to 9%),
- Dizziness (in vivo): Neurologic: Confusion (up to 5.7%), Dizziness (25%), Headache
- Fatigue (in vivo): Other: Fatigue (5.7% to 15%)
- Hypersensitivity reaction (in vivo): Immunologic: Hypersensitivity reaction (less than 1%)
- Hypotension (in vivo): Cardiovascular: Cardiac dysrhythmia, Hypotension (3.8% to 7%),
- Nausea (in vivo): Nausea (21%), Vomiting (at least 1%), Xerostomia (14% to 33.8%)
- Vomiting (in vivo): Nausea (21%), Vomiting (at least 1%), Xerostomia (14% to 33.8%)
- Xerostomia (in vivo): Nausea (21%), Vomiting (at least 1%), Xerostomia (14% to 33.8%)

Structure (SMILES): CCC[C@H](N[C@@H](C)C(=O)N1[C@H](C(=O)O)C[C@@H]2CCCC[C@@H]21)C(=O)OCC [Perindopril (Aceon)]
- Angioedema (in vivo): Other: Angioedema (0.1% to 0.5%)
- Backache (in vivo): Musculoskeletal: Backache (5.8%)
- Cough (in vivo): Respiratory: Cough (12%)
- Dizziness (in vivo): Neurologic: Asthenia, Dizziness (8.2%), Headache
- Orthostatic hypotension (in vivo): Cardiovascular: Cardiac arrest, Orthostatic hypotension (0.8%)

Structure (SMILES): CNCC[C@@H](Oc1ccccc1C)c1ccccc1 [Atomoxetine (Strattera)]
- Constipation (in vivo): 18%), Constipation (adult, 8%; pediatric, 1% to 2%), Decrease in
- Decrease in appetite (in vivo): appetite (adult, 16%; pediatric, 16%), Nausea (adult, 26%;
- Delay when starting to pass urine (in vivo): Renal: Delay when starting to pass urine (adult, 6%)
- Dysmenorrhea (in vivo): Reproductive: Dysmenorrhea (adult, 3%), Erectile dysfunction
- Erectile dysfunction (in vivo): (adult, 8%)
- Headache (in vivo): Neurologic: Headache (pediatric, 19%), Insomnia (adult, 15%;
- Increased systolic arterial pressure (in vivo): pressure (adult, 4.2% to 12.4%; pediatric, 4.9% to 12.5%),
- Menopausal flushing (in vivo): Other: Menopausal flushing (adult, 3%)
- Priapism (in vivo): Reproductive: Priapism (rare)
- Seizure (in vivo): 0.1%; pediatric, 0.2%)
- Serious side effect, Cardiovascular (in vivo): Cardiovascular: Myocardial infarction, Sudden cardiac death
- Serious side effect, Hepatic (in vivo): Hepatic: Injury of liver (Severe), Liver failure
- Serious side effect, Neurologic (in vivo): Neurologic: Cerebrovascular accident, Dyskinesia, Seizure (adult,
- Serious side effect, Psychiatric (in vivo): Psychiatric: Mania, Psychotic disorder, Suicidal thoughts
- Somnolence (in vivo): pediatric, at least 2%), Somnolence (adult, 8%; pediatric, 11%)
- Suicidal thoughts (in vivo): (pediatric, 0.4%)
- Tachycardia (in vivo): Tachycardia (adult, 1.5% to 22.4%; pediatric, 0.3% to 23.4%)
- Vomiting (in vivo): pediatric, 7% to 13%), Vomiting (adult, 4%; pediatric, 11%),
- Weight decreased (in vivo): Endocrine metabolic: Weight decreased (adults, 2%; pediatric, 3%
- Xerostomia (in vivo): Xerostomia (adult, 20%)

Structure (SMILES): CCCCc1nc(Cl)c(CO)n1Cc1ccc(-c2ccccc2-c2nnn[nH]2)cc1 [Losartan (Cozaar)]
- Anemia (in vivo): Hematologic: Anemia (14%)
- Chest pain (in vivo): Cardiovascular: Chest pain (12%), Hypotension (7%)
- Cough (in vivo): Respiratory: Cough (10%)
- Diarrhea (in vivo): Gastrointestinal: Diarrhea (15%)
- Dizziness (in vivo): Neurologic: Asthenia, Dizziness (3%)
- Hyperkalemia (in vivo): Endocrine metabolic: Hyperkalemia (7%), Hypoglycemia (14%)
- Hypoglycemia (in vivo): Endocrine metabolic: Hyperkalemia (7%), Hypoglycemia (14%)
- Hypotension (in vivo): Cardiovascular: Chest pain (12%), Hypotension (7%)
